Data from ChEMBL document CHEMBL1147813, “Design, molecular modeling, synthesis, and anti-HIV-1 activity of new indolyl aryl sulfones. Novel derivatives of the indole-2-carboxamide” (J Med Chem, 2006).

System: Human immunodeficiency virus 1
Assay: Antiviral activity against HIV1
Assay type: functional, organism-based

SMILES | EC50
Cc1cc(C)cc(Sc2c(C(N)=O)[nH]c3ccc(Cl)cc23)c1 | 6 nM
CC(C)OC(=O)c1cn(S(=O)(=O)c2ccccc2)c2ccccc12 | > 54000 nM
CC(C)(C)c1ccc(Sc2c(C(N)=O)[nH]c3ccc(Cl)cc23)cc1 | 8000 nM
CCOC(=O)c1[nH]c2ccccc2c1Sc1ccccc1N | > 200000 nM
CCOC(=O)c1cn(S(=O)(=O)c2ccccc2)c2ccccc12 | > 32000 nM
Cc1cc(C)cc(S(=O)(=O)c2c(C(N)=O)[nH]c3ccc(Br)cc23)c1 | 2 nM
O=[N+]([O-])c1ccc(Cl)c(-n2ccc3ccccc32)c1 | 5220 nM
CCOC(=O)c1cc2cc(Cl)ccc2n1S(=O)(=O)c1cc(Cl)ccc1N | 8300 nM
O=[N+]([O-])c1ccccc1-n1ccc2ccccc21 | 5300 nM
Nc1cc(Cl)ccc1-n1ccc2ccccc21 | 4130 nM
Cc1cc(C)cc(S(=O)(=O)c2c(C(N)=O)[nH]c3ccc(Cl)cc23)c1 | 4 nM
CCOC(=O)c1cc2cc(Cl)ccc2n1S(=O)(=O)c1cc(Cl)ccc1[N+](=O)[O-] | > 31000 nM
O=[N+]([O-])c1ccc(Cl)cc1-n1ccc2ccccc21 | 5400 nM
CCOC(=O)c1cc2ccccc2n1S(=O)(=O)c1ccc(Cl)cc1 | > 100000 nM
CCOC(=O)c1cc2ccccc2n1S(=O)(=O)c1cc(Cl)ccc1[N+](=O)[O-] | > 100000 nM
CCOC(=O)c1[nH]c2ccccc2c1Sc1cc(Cl)ccc1N | ≥ 200000 nM
NNC(=O)c1[nH]c2ccc(Cl)cc2c1Sc1ccc(F)cc1 | 5000 nM

SMILES | EC50
NNC(=O)c1[nH]c2ccc(Cl)cc2c1S(=O)(=O)c1ccccc1 | 10 nM
NC(=O)c1[nH]c2ccccc2c1Sc1cc(Cl)ccc1N | 9000 nM
NNC(=O)c1cc2ccccc2n1S(=O)(=O)c1ccccc1 | > 200000 nM
Cc1ccc(Sc2c(C(N)=O)[nH]c3ccc(Cl)cc23)cc1 | > 450 nM
Nc1ccc(Cl)cc1-n1ccc2ccccc21 | 6000 nM
O=S(=O)(c1ccccc1)n1ccc2ccccc21 | > 150000 nM
NNC(=O)c1[nH]c2ccc(Cl)cc2c1Sc1cc(Cl)ccc1N | > 13000 nM
Nc1ccccc1-n1ccc2ccccc21 | 4960 nM
CCOC(=O)c1[nH]c2ccccc2c1Sc1ccccc1 | 1400 nM
O=[N+]([O-])c1cc(Cl)ccc1-n1ccc2ccccc21 | 4800 nM
NC(=O)c1cn(S(=O)(=O)c2ccccc2)c2ccccc12 | > 32000 nM
CCOC(=O)c1cc2ccccc2n1S(=O)(=O)c1ccccc1[N+](=O)[O-] | 1800 nM
CCOC(=O)c1cc2cc(Cl)ccc2n1S(=O)(=O)c1ccc(Cl)cc1 | > 200000 nM
CCOC(=O)c1cc2cc(Cl)ccc2n1S(=O)(=O)c1ccc(C)cc1 | > 200000 nM
Nc1ccc(Cl)c(-n2ccc3ccccc32)c1 | 3820 nM
NC(=O)c1[nH]c2ccc(Cl)cc2c1S(=O)(=O)c1ccccc1 [L-737126] | 1 nM

The next lines start with the values.

EC50 | SMILES
7 nM | Cc1cccc(S(=O)(=O)c2c(C(=O)NNCCO)[nH]c3ccc(Cl)cc23)c1
> 200000 nM | CC(C)OC(=O)c1cn(S(=O)(=O)c2ccccc2)c2ccc(Cl)cc12
180 nM | NC(=O)c1[nH]c2ccccc2c1S(=O)(=O)c1ccccc1
> 42000 nM | CCOC(=O)c1cn(S(=O)(=O)c2ccccc2)c2ccc(Cl)cc12
50 nM | Cc1ccccc1Sc1c(C(=O)NCCO)[nH]c2ccc(Cl)cc12
530 nM | NNC(=O)c1[nH]c2ccccc2c1S(=O)(=O)c1ccccc1
100 nM | Cc1cccc(Sc2c(C(=O)NCCO)[nH]c3ccc(Cl)cc23)c1C
10 nM | O=C(NNCCO)c1[nH]c2ccc(Cl)cc2c1S(=O)(=O)c1ccccc1
100 nM | Cc1ccccc1Sc1c(C(=O)NNCCO)[nH]c2ccc(Cl)cc12
0.8 nM | Cc1cc(C)cc(S(=O)(=O)c2c(C(=O)NCCO)[nH]c3ccc(Cl)cc23)c1
130 nM | Cc1cc(C)cc(S(=O)(=O)c2c(C(=O)NN)[nH]c3ccc(Cl)cc23)c1
> 75000 nM | O=S(=O)(c1ccccc1)n1ccc2cc(Cl)ccc21
120 nM | Cc1ccc(Sc2c(C(=O)NCCO)[nH]c3ccc(Cl)cc23)cc1
43 nM | Cc1ccc(S(=O)(=O)c2c(C(=O)NCCO)[nH]c3ccc(Cl)cc23)cc1
40 nM | O=C(NCCO)c1[nH]c2ccc(Cl)cc2c1Sc1ccccc1
50 nM | Cc1ccccc1S(=O)(=O)c1c(C(=O)NNCCO)[nH]c2ccc(Cl)cc12
> 200000 nM | CCOC(=O)c1cc2cc(Cl)ccc2n1S(=O)(=O)c1ccccc1
300 nM | Cc1ccccc1Sc1c(C(N)=O)[nH]c2ccc(Cl)cc12
1 nM | Cc1ccccc1S(=O)(=O)c1c(C(N)=O)[nH]c2ccc(Cl)cc12
66600 nM | NC(=O)c1cc2cc(Cl)ccc2n1S(=O)(=O)c1ccccc1
200 nM | O=C(NNCCO)c1[nH]c2ccc(Cl)cc2c1Sc1ccccc1
550 nM | NNC(=O)c1[nH]c2ccc(Cl)cc2c1Sc1ccccc1
3 nM | Cc1cccc(S(=O)(=O)c2c(C(=O)NCCO)[nH]c3ccc(Cl)cc23)c1
31 nM | Cc1ccccc1S(=O)(=O)c1c(C(=O)NCCO)[nH]c2ccc(Cl)cc12

EC50 | SMILES
4 nM | Cc1ccc(S(=O)(=O)c2c(C(N)=O)[nH]c3ccc(Cl)cc23)c(C)c1
320 nM | NNC(=O)c1[nH]c2ccc(Cl)cc2c1S(=O)(=O)c1ccc(F)cc1
1 nM | Cc1cccc(S(=O)(=O)c2c(C(N)=O)[nH]c3ccc(Cl)cc23)c1
300 nM | NC(=O)c1[nH]c2ccccc2c1S(=O)(=O)c1cc(Cl)ccc1N
1200 nM | Cc1ccc(Sc2c(C(=O)NNCCO)[nH]c3ccc(Cl)cc23)c(C)c1
40 nM | NC(=O)c1[nH]c2ccc(Cl)cc2c1S(=O)(=O)c1cc(Cl)ccc1N
30 nM | Cc1cc(C)cc(Sc2c(C(=O)NNCCO)[nH]c3ccc(Cl)cc23)c1
100 nM | NC(=O)c1[nH]c2ccc(Cl)cc2c1S(=O)(=O)c1c(Cl)cccc1Cl
190 nM | NNC(=O)c1[nH]c2ccc(Cl)cc2c1S(=O)(=O)c1ccc(Cl)cc1
8 nM | Cc1ccc(S(=O)(=O)c2c(C(=O)NCCO)[nH]c3ccc(Cl)cc23)c(C)c1
80 nM | Cc1cccc(Sc2c(C(=O)NCCO)[nH]c3ccc(Cl)cc23)c1
20 nM | NC(=O)c1[nH]c2ccc(Cl)cc2c1Sc1ccccc1
80 nM | Cc1ccc(S(=O)(=O)c2c(C(=O)NNCCO)[nH]c3ccc(Cl)cc23)c(C)c1
1 nM | Cc1cc(C)cc(S(=O)(=O)c2c(C(=O)NNCCO)[nH]c3ccc(Cl)cc23)c1
80 nM | CC(C)c1ccc(S(=O)(=O)c2c(C(N)=O)[nH]c3ccc(Cl)cc23)cc1
40 nM | Cc1ccc(S(=O)(=O)c2c(C(=O)NNCCO)[nH]c3ccc(Cl)cc23)cc1
600 nM | Cc1ccc(Sc2c(C(=O)NNCCO)[nH]c3ccc(Cl)cc23)cc1
300 nM | NNC(=O)c1[nH]c2ccc(Cl)cc2c1S(=O)(=O)c1cc(Cl)ccc1N
50 nM | Cc1ccc(S(=O)(=O)c2c(C(=O)NN)[nH]c3ccc(Cl)cc23)cc1
1 nM | O=C(NCCO)c1[nH]c2ccc(Cl)cc2c1S(=O)(=O)c1ccccc1
> 200000 nM | CCOC(=O)c1[nH]c2ccc(Cl)cc2c1S(=O)(=O)c1ccccc1N
10000 nM | NNC(=O)c1[nH]c2ccc(Cl)cc2c1Sc1ccc(Cl)cc1
3 nM | Cc1ccc(S(=O)(=O)c2c(C(N)=O)[nH]c3ccc(Cl)cc23)cc1
12 nM | Cc1cc(C)cc(Sc2c(C(=O)NCCO)[nH]c3ccc(Cl)cc23)c1
